Reference: ChEMBL document CHEMBL4393656, “Cationic biaryl 1,2,3-triazolyl peptidomimetic amphiphiles targeting Clostridioides (Clostridium) difficile: Synthesis, antibacterial evaluation and an in vivo C. difficile infection model” (Eur J Med Chem, 2019)
The source made the active and inactive calls. The rule behind the calls is not given here.

Assays:
Staphylococcus aureus [1] = experiment: Growth inhibition of Staphylococcus aureus ATCC 29213 incubated in MHB broth for 24 hrs; assay type: organism-based
Enterococcus faecalis = experiment: Growth inhibition of Enterococcus faecalis ATCC 29212 incubated in MHB broth for 24 hrs; assay type: organism-based
Streptococcus pneumoniae = experiment: Growth inhibition of Streptococcus pneumoniae ATCC 49619 incubated in MHB medium with lysed horse blood and 5% CO2 for 24 hrs; assay type: organism-based
Clostridioides difficile [2] = experiment: Antibacterial activity against Clostridium difficile ATCC 700057 incubated for 2 to 4 hrs in pre-reduced brucella broth supplemented with haemin/vitamin K and further incubation in anaerobic condition for 48 hrs; assay type: functional
Clostridioides difficile [3] = experiment: Antibacterial activity against Clostridium difficile NSW132 RT027 incubated for 2 to 4 hrs in pre-reduced brucella broth supplemented with haemin/vitamin K and further incubation in anaerobic condition for 48 hrs; assay type: functional
Escherichia coli [4] = experiment: Growth inhibition of Escherichia coli ATCC 25922 incubated for 18 hrs; assay type: organism-based
Klebsiella pneumoniae = experiment: Growth inhibition of Klebsiella pneumoniae ATCC 700603 incubated for 18 hrs; assay type: organism-based
Acinetobacter baumannii = experiment: Growth inhibition of Acinetobacter baumannii ATCC 19606 incubated for 18 hrs without shaking by absorbance based monochromator plate reader analysis; assay type: organism-based, ATCC 19606 = CIP 70.34 = JCM 6841; settings: in vitro
Pseudomonas aeruginosa = experiment: Growth inhibition of Pseudomonas aeruginosa ATCC 27853 incubated for 18 hrs; assay type: organism-based
Staphylococcus aureus [5] = experiment: Growth inhibition of methicillin-resistant Staphylococcus aureus ATCC 43300 incubated for 18 hrs; assay type: organism-based
[6] = Cytotoxicity against HEK293 cells assessed as decrease in cell viability after 20 hrs by resazurin dye-based fluorescence assay; settings: human
[7] = Haemolytic activity in sheep erythrocytes assessed as induction of haemolysis at 5 ug/ml incubated for 2 hrs relative to control; assay type: cell-based, Ovis aries, Erythrocyte; settings: read-out: Activity
[8] = Haemolytic activity in sheep erythrocytes assessed as induction of haemolysis at 50 ug/ml incubated for 2 hrs relative to control; assay type: cell-based, Ovis aries, Erythrocyte; settings: read-out: Activity
[9] = Aqueous solubility of the DMSO-dissolved compound in >200 uL water at 5 mg; assay type: physicochemical; settings: buffer
Clostridioides difficile [10] = experiment: (§1) Antibacterial activity against Clostridium difficile ribotype 027 M7404 spores infected in antibiotic cocktail-induced CDI C57BL/6J mouse model assessed as decrease in diarrhea at 100 mg/kg administered via oral gavage for every 12 hrs starting from 6 hrs post-infection and measured at 24 hrs post infection; assay type: functional, organism-based; settings: genomovar ribotype 027 M7404
Clostridioides difficile [11] = experiment: as §1, with “protection against bacterial infection” for “decrease in diarrhea”, “2 days” for “24 hrs”; assay type: functional, organism-based; settings: genomovar ribotype 027 M7404
Clostridioides difficile [12] = experiment: as §1, with “weight loss” for “diarrhea”; assay type: functional, organism-based; settings: genomovar ribotype 027 M7404
Clostridioides difficile [13] = experiment: as §1, with “physiological appearance score” for “diarrhea”; assay type: functional, organism-based; settings: genomovar ribotype 027 M7404
Clostridioides difficile [14] = experiment: Antibacterial activity against Clostridium difficile ribotype 027 M7404; assay type: functional; settings: genomovar ribotype 027 M7404
Clostridioides difficile [15] = experiment: as §1, with “decrease in fecal spore load at 100” for “decrease in diarrhea at 100”, “post infection by heat shock based plating method” for “post infection”; assay type: functional, organism-based; settings: genomovar ribotype 027 M7404
Staphylococcus aureus [16] = experiment: Induction of cytoplasmic membrane depolarization in Staphylococcus aureus ATCC 29213 at 32 ug/ml by DiSC3-5 dye based fluorescence method; assay type: organism-based
Escherichia coli [17] = experiment: Induction of cytoplasmic membrane depolarization in Escherichia coli NCTC 10418 at 64 ug/ml by DiSC3-5 dye based fluorescence method; assay type: organism-based
Staphylococcus aureus [18] = experiment: Induction of cytoplasmic membrane permeabilization in Staphylococcus aureus ATCC 29213 at 32 ug/ml by propidium iodide staining based fluorescence method relative to control
Escherichia coli [19] = experiment: Induction of cytoplasmic membrane permeabilization in Escherichia coli NCTC 10418 at 32 ug/ml by propidium iodide staining based fluorescence method; assay type: organism-based
Staphylococcus aureus [20] = experiment: Induction of cytoplasmic membrane permeabilization in Staphylococcus aureus ATCC 29213 at 32 ug/ml measured after 10 mins by propidium iodide staining based fluorescence method; assay type: organism-based
Escherichia coli [21] = experiment: Induction of cytoplasmic membrane depolarization in Escherichia coli NCTC 10418 at 4 ug/ml by DiSC3-5 dye based fluorescence method; assay type: organism-based
Escherichia coli [22] = experiment: Induction of cytoplasmic membrane permeabilization in Escherichia coli NCTC 10418 at 4 ug/ml by propidium iodide staining based fluorescence method; assay type: organism-based
Staphylococcus aureus [23] = experiment: Induction of cytoplasmic membrane permeabilization in Staphylococcus aureus ATCC 29213 at 32 ug/ml measured after 40 mins by propidium iodide staining based fluorescence method; assay type: organism-based
[24] = Solubility of the compound in 10% DMSO solution; assay type: physicochemical
Clostridioides difficile [25] = experiment: as §1, with “assessed as survival rate at 100” for “assessed as decrease in diarrhea at 100”, “post infection (reference value: 0%)” for “post infection”; assay type: functional, genomovar ribotype 027 M7404
[26] = Drug accumulation in blood of antibiotic cocktail-induced CDI C57BL/6J mouse model infected with Clostridium difficile ribotype 027 M7404 spores at 100 mg/kg administered via oral gavage for every 12 hrs starting from 6 hrs post-infection by LRMS analysis; assay type: ADME, organism-based; settings: in vivo
[27] = Drug accumulation in feces of antibiotic cocktail-induced CDI C57BL/6J mouse model infected with Clostridium difficile ribotype 027 M7404 spores at 100 mg/kg administered via oral gavage for every 12 hrs starting from 6 hrs post-infection by LRMS analysis; assay type: ADME, organism-based; settings: in vivo
[28] = Drug localization in blood of C57BL/6J mouse measured after 2 hr by LRMS analysis; assay type: ADME, tissue-based

| Molecule | MIC (Staphylococcus aureus [1]) | MIC (Enterococcus faecalis) | MIC (Streptococcus pneumoniae) | MIC (Clostridioides difficile [2]) | MIC (Clostridioides difficile [3]) | MIC (Escherichia coli [4]) | MIC (Klebsiella pneumoniae) | MIC (Acinetobacter baumannii) | MIC (Pseudomonas aeruginosa) | MIC (Staphylococcus aureus [5]) | CC50 at 20 h [6] | hemolysis at 2 h, 5 ug/ml [7] | hemolysis at 2 h, 50 ug/ml [8] | Activity (Clostridioides difficile [10]) | further results |
| --- | --- | --- | --- | --- | --- | --- | --- | --- | --- | --- | --- | --- | --- | --- | --- |
| CC(C)CCOc1ccccc1-c1ccccc1OCc1cn([C@H](CCCCN)C(=O)NCC2CCCCC2)nn1.Cl | 8 µg/mL | 8 µg/mL | 8 µg/mL | 16 µg/mL | 32 µg/mL | > 32 µg/mL | > 32 µg/mL | 32 µg/mL | > 32 µg/mL | 8 µg/mL | 5.6 µg/mL | 0% | 98% | – | solubility [9]: Soluble |
| CC(C)CCOc1ccc2ccccc2c1-c1c(OCC(=O)N[C@H](CCCNC(=N)N)C(=O)NCc2ccccc2)ccc2ccccc12.Cl | 2 µg/mL | 2 µg/mL | 2 µg/mL | 8 µg/mL | 8 µg/mL | > 32 µg/mL | > 32 µg/mL | > 32 µg/mL | > 32 µg/mL | 4 µg/mL | > 32 µg/mL | 0.3% | 100% | inactive | Activity (Clostridioides difficile [11]): inactive; Activity (Clostridioides difficile [12]): inactive; Activity (Clostridioides difficile [13]): inactive; MIC (Clostridioides difficile [14]): 2 µg/mL |
| CC(C)CCOc1ccccc1-c1ccccc1OCc1cn([C@H](CCCNC(=N)N)C(=O)NC2CCCCC2)nn1.Cl | 4 µg/mL | 4 µg/mL | 4 µg/mL | 8 µg/mL | 16 µg/mL | > 32 µg/mL | > 32 µg/mL | 32 µg/mL | > 32 µg/mL | 4 µg/mL | 19.7 µg/mL | 1.4% | 81.8% | Active | Activity (Clostridioides difficile [11]): inactive; Activity (Clostridioides difficile [12]): inactive; Activity (Clostridioides difficile [15]): Active; Activity (Staphylococcus aureus [16]): Active; Activity (Escherichia coli [17]): Active; Activity (Staphylococcus aureus [18]): >500%; Activity (Escherichia coli [19]): Active; Activity (Staphylococcus aureus [20]): Active |
| COLISTIN | – | – | – | – | – | – | – | – | – | – | – | – | – | – | Activity (Escherichia coli [21]): Active; Activity (Escherichia coli [22]): Active |
| CC(C)CCOc1ccccc1-c1ccccc1OCc1cn([C@H](CCCCN)C(=O)N[C@H](CCCNC(=N)N)Cn2cc(CCc3ccccc3)nn2)nn1.Cl.Cl | 4 µg/mL | 8 µg/mL | 8 µg/mL | 16 µg/mL | 16 µg/mL | 8 µg/mL | 16 µg/mL | 8 µg/mL | 8 µg/mL | 2 µg/mL | 16.4 µg/mL | 1.4% | 12.6% | – | Activity (Staphylococcus aureus [23]): Active; Activity (Staphylococcus aureus [16]): Active; Activity (Escherichia coli [17]): Active; Activity (Staphylococcus aureus [18]): >500%; Activity (Escherichia coli [19]): Active |
| CC(C)CCOc1ccc2ccccc2c1-c1c(OCC(=O)N[C@H](CCCNC(=N)N)Cn2cc(-c3ccccc3)nn2)ccc2ccccc12.Cl | – | – | – | 8 µg/mL | – | – | – | – | – | – | – | – | 86% | – | solubility [24]: Insoluble |
| CC(C)CCOc1ccc2ccccc2c1-c1c(OCc2cn(C[C@@H](CCCCN)NC(=O)[C@@H](CCCNC(=N)N)NC(=O)CCc3ccccc3)nn2)ccc2ccccc12.Cl.Cl | – | – | – | 8 µg/mL | – | – | – | – | – | – | – | – | – | Active | Activity (Clostridioides difficile [25]): 50%; Drug uptake [26]: Not Active; Drug uptake [27]: Active; Drug uptake [28]: Not Active |
